Data on three molecules can be found in ChEMBL document CHEMBL1649085.

In general, bioavailability refers to the share of a dose that reaches the circulation, judged against a reference dose that is usually intravenous. A low value points to poor availability. The term Tmax denotes the time at which the peak concentration occurs. The term AUC(0-t) denotes the area under the concentration-time curve up to a stated or last time point. For orientation: Cmax means the maximum level reached in the sampled fluid or tissue.

Type in all cases: ADME, organism-based
Series [1] deals with Plasma. Nature of the series: Drug uptake in rat plasma at 10 mg/kg, po. As to conditions: in vivo. On the set-up: dose 10 mg/kg, route oral.
Series [2] has as its system Brain. Nature of the series: Drug uptake in rat brain at 10 mg/kg, po. Set-up: dose 10 mg/kg, route oral. As to conditions: in vivo, read-out: Drug uptake.
Series [3] can be described thus: Ratio of drug level in brain to plasma in rat at 10 mg/kg, po. On the set-up: dose 10 mg/kg, route oral.
Series [4] can be described thus: Oral bioavailability in rat at 10 mg/kg, po. As to conditions: in vivo.
A short description of series [5]: Tmax in rat at 10 mg/kg, po. On the set-up: dose 10 mg/kg, route oral. The settings on record: in vivo.
Series [6] can be described thus: AUC (0 to time) in rat at 10 mg/kg, po. On the set-up: dose 10 mg/kg, route oral. The settings on record: plasma.
A short description of series [7]: Cmax in rat at 10 mg/kg, po. On the set-up: dose 10 mg/kg, route oral. As to conditions: in vivo.

For `O=C(O)c1cc(-c2cccc(COc3ccc4c(c3)CN(C3CCCC3)C4=O)c2)ccc1Cl`, the figures for the concentration in series [1] and in series [2] were 12.3 µM and 3.8 µM, respectively. In series [3], the BPR turned out to be 0.3. For the same molecule, the bioavailability in series [4] was 40%. Also, in series [5], the Tmax was 1.33 h. In series [6], this molecule returned an AUC(0-t) of 106 µM·h. In series [7], this molecule registered a Cmax of 14.4 µM.
In the case of `O=C(O)c1cc(-c2cccc(COc3ccc4c(=O)n(C5CCCC5)sc4c3)c2)ccc1Cl`, the results for the concentration in series [1] and in series [2] were 1 µM and 4.8 µM, respectively. The BPR in series [3] turned out to be 4.8. Besides, the Tmax in series [5] was 1.83 h. The same molecule returned an AUC(0-t) in series [6] of 43.3 µM·h. The molecule further displayed a peak concentration (Cmax) in series [7] of 4.1 µM.
With `Cc1c(OCc2cccc(-c3ccc(C(=O)O)cc3)c2)cc2c(c1C)C(=O)C(C1CCCC1)C2` (stereo not drawn), in series [1], the concentration is 0.027 µM. Further, the bioavailability in series [4] stood at 33%. In addition, the Tmax in series [5] was 2 h. In series [6], this molecule came in with an AUC(0-t) of 0.281 µM·h. Further, the Cmax in series [7] stood at 0.097 µM.
